This is an account of results in patent publication US20140248291A1, “Modulation of Cellular Migration” (THE UAB RESEARCH FOUNDATION, priority 2011, published 2014).

The target in one experiment is T1, rat B1 BK receptor (Rattus norvegicus, UniProt P97583).
T1 sequence (P97583 1-337): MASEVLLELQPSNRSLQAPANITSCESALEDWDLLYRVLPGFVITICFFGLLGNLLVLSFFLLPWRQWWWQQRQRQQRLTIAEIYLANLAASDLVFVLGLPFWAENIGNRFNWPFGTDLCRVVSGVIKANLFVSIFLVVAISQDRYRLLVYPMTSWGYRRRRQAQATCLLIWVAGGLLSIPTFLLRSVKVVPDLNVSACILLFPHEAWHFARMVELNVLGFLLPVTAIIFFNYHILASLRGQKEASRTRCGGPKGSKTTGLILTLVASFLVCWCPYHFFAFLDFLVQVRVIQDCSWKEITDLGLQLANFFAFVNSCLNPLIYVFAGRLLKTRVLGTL
As to conditions: cited from earlier work.

Experiment [1] concerns BK-induced ventral root depolarizations. As to conditions: rat spinal cord and tail preparation, n=3; cited from earlier work.
The subject of a further experiment is D54-EGFP tumor cells. Kind of experiment: tumor invasion/growth in organotypic mouse brain slice cultures. The format is cell-based, human. The method, then:
Slice cultures were prepared from brains of P13-P16 BALB/c scid mice (Jackson Laboratory). Coronal brain sections 300 μm thick were sliced with a Vibrotome 3000 sectioning system in ice cold artificial saline. Brain slices were transferred into filter inserts with a polycarbonate membrane (Falcon, BD, pore size 0.45 μm). Filters were placed into 6-well plates containing 1 ml of DMEM supplemented with 8% FCS, 0.2 mM glutamine, 100 U/mL penicillin, and […] streptomycin. After overnight repose the medium was changed to cultivation medium containing 25% heat-inactivated horse serum, 50 mM sodium bicarbonate, 2% glutamine, 25% Hank's balanced salt solution, […] insulin (all from Gibco), 2.46 mg/mL glucose (Sigma Aldrich), 0.8 mg/mL vitamin C (Sigma Aldrich), 100 U/mL penicillin, […] streptomycin (Sigma Aldrich), and 5 mM Tris in DMEM (Gibco). At day 3 of culturing approximately 3000 D54-EGFP tumor cells in a volume of 1 μl were implanted per organotypic brain slice. Cells were injected using a 1 μl hemilton syringe mounted to a micromanipulator. The cell suspension was slowly injected over 30 seconds and subsequently the syringe was slowly pulled out. Gliomas were always inoculated into the right cortex. […] The tumor area was determined using ImageJ software (available from rsbweb.nih.gov). Tumor growth was calculated between day 4 and day 11 of culturing.

The next experiment addresses BK (Homo sapiens, UniProt P30411). Particulars: cited from earlier work.
The next experiment concerns D54-MG-GFP cells. As to the kind of experiment: slice invasion assay, acute rat brain slices. The format is cell-based, human. How it is done: Experiments were performed on male and female Sprague-Dawley rats and were approved by the University of Alabama Institutional Animal Care and Use Committee. 17-22 days old pups were decapitated. Meninges were stripped, brain was taken out and put in ice-cold bath ACSF. Tissue was sliced using Vibrotome 3000 sectioning system. 300 μm thick slices were let recover in ACSF for 1 hour at room temperature, followed by recovery in ACSF at 37° C. in […] for 1 hour. CD31 antibody (BD Biosciences, Pharminogen, San Diego, Calif.) that labels blood vessels was added during the latter recovery period. Slices were then transferred into transwell migration cell culture inserts (BD Biosciences, San Jose, Calif.) with 8 μm pores that were pretreated with Vitronectin and blocked as described above. 50,000 D54-EGFP MG cells were then seeded on top of the slices and allowed to migrate/invade into the tissue for 2 hours at 37° C. During that period, slices were treated with 1 μM BK, 1 μM BK+5 μM HOE-140 or 5 μM HOE-140 added to the bottom of migration chamber in order to create a concentration gradient, similar to in vitro migration/invasion assay (FIG. 5C). In control experiments, drug treatment was omitted. Following double washes with PBS, slices were fixed in 4% paraformaldehyde overnight at 4° C. The following day, samples were washed three times with PBS and the slices were mounted between two coverslips for imaging on an Olympus Fluoview confocal microscope with 60× objective.
Having established a dependence of migration and BK in vitro, the role of BK signaling in brain slices was examined, where the presence of neurons, glia and endothelial cells resemble the complex environment more reminiscent of the actual invasions of glioma cells in the human brain. To this end, acute brain slices of rat cortex, that can be maintained viable for many hours of investigation, were incubated with CD31 antibody to label blood vessels and seeded with D54-MG-GFP cells. Cells were allowed to migrate and invade for 2 hours in presence or absence of BK and in presence or absence of B2R antagonist HOE-140. The experimental set-up is illustrated in FIG. 5C. Representative confocal images of glioma cells invading into the slice in the presence of BK with and without antagonist HOE-140 added are shown in FIG. 5A, a, A, b and A, c. […] Similarly, most of the cells remained on the slices when treated only with B2R antagonist, as depicted in 40 μm cross-section in FIG. 5A, f. Data were analyzed by counting the number of glioma cells that attached to blood vessels in the presence of BK (77.4±4.1%, 391 cells analyzed), BK and antagonist HOE-140 (19.3±3.4%, 461 cells analyzed) or antagonist HOE-140 (42.7±4.2%, 452 cells analyzed) and compared with control (53.5±6.3%, 403 cells analyzed) where no drugs were added. […] Another important effect observed was that the glioma cells were invading deeper into the tissue in the presence of BK when compared to controls.

Sequence of BK (P30411 whole entry, species assumed): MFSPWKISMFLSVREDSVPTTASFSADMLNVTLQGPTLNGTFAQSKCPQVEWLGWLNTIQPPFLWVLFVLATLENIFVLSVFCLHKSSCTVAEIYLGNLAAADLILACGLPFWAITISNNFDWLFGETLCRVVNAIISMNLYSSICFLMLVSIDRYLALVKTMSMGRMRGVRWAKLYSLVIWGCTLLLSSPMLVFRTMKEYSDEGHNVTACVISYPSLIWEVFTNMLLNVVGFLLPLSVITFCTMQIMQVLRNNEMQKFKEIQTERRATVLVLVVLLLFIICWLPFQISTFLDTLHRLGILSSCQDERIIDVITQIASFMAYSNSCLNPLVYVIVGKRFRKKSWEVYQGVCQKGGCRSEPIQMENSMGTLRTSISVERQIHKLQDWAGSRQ

A word on the IC50: it is the concentration that gives 50% inhibition. `CN(C)CCN(C)CCNC(=O)[C@@H]1CCCN1S(=O)(=O)c1ccc(NNC(=S)NC(c2ccccc2)c2ccccc2)c([N+](=O)[O-])c1` [Bradyzide]: at rat B1 BK receptor, the “interaction with rat B1 BK receptor” value is reported as “does not interact”. Moreover, the IC50 in experiment [1] was 1.6 ± 0.05 nM.
On to `N=C(N)NCCCC(NC(=O)[C@H](N)CCCNC(=N)N)C(=O)N1CCC[C@H]1C(=O)N1C[C@H](O)C[C@H]1C(=O)NCC(=O)N[C@@H](Cc1cccs1)C(=O)N[C@@H](CO)C(=O)N1Cc2ccccc2C[C@@H]1C(=O)N1C2CCCCC2C[C@H]1C(=O)N[C@H](CCCNC(=N)N)C(=O)O` (stereo partly drawn) [HOE-140, D-Arg-[Hyp^3, Thi^5, D-Tic^7, Oic^8]bradykinin], for which, in the experiment on D54-EGFP tumor cells (BK and HOE-140 compared to control slices or HOE-140 alone), the “tumor growth day 4 to day 11” value is “did not differ significantly”. Further, the “migration (spread) of GFP-expressing tumor cells” value in the experiment on D54-EGFP tumor cells (HOE-140 (5 μM) and BK (1 μM) compared to BK alone) was “significantly reduced migration”. Also, the “potency relative to D-Arg-[Hyp^2, Thi^5,8, D-Phe^7]BK” value on BK is on record as “two to three orders of magnitude more potency”. In addition, the “glioma cells attached to blood vessels” value in the experiment with D54-MG-GFP cells (1 μM BK + 5 μM HOE-140, 2 h, 461 cells analyzed) worked out at 19.3±3.4%. Further, in the experiment on D54-MG-GFP cells (5 μM HOE-140 alone, 2 h, 452 cells analyzed), the “glioma cells attached to blood vessels” value is 42.7±4.2%. Moreover, in the experiment with D54-MG-GFP cells (HOE-140 alone), the “cells migrated up to 15 μm” value was 29.8%, the “cells migrated up to 20 μm” value is reported as 14.4%, the “cells migrated up to 25 μm” value worked out at 3.5% and the “cells on top of the slice” value is on record as 51.9%. In the experiment with D54-MG-GFP cells (HOE-140 in addition to BK), the “cells migrated up to 15 μm” value turned out to be 25.7%, the “cells migrated up to 20 μm” value is 15.4%, the “cells migrated up to 25 μm” value was 6.4% and the “cells remained on the top of the slice” value worked out at 47.5%.
